Biological target: T1, rat B1R (bradykinin receptor 1) (Rattus norvegicus, UniProt P97583)
T1 construct: expressed in transfected cells; host or cells: CHO K1 cells
T1 sequence (P97583 1-337): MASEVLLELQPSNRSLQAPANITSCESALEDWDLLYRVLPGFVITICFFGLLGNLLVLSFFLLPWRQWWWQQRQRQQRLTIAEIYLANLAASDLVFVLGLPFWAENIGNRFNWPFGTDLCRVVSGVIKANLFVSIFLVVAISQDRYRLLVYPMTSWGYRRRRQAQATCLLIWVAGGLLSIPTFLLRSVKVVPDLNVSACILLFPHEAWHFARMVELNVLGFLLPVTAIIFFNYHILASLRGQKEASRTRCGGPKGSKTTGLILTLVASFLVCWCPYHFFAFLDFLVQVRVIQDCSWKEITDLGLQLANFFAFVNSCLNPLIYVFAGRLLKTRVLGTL
Assay: FLIPR Ca2+ assay (Fluo-4) on CHO K1 cells stably transfected with the B1R gene of the rat (rB1R cells): % inhibition at 10 μM / IC50, agonist Des-Arg9-bradykinin
Type: cell-based
Conditions: CHO-K1, rat B1R
Experimental: The agonistic or antagonistic action of substances can be quantified on the bradykinin receptor 1 (B1R) of the human and rat species with ectopically expressing cell lines (CHO K1 cells) and with the aid of a Ca^2+-sensitive dyestuff (Fluo-4) in a fluorescent imaging plate reader (FLIPR). The figure in % activation is based on the Ca^2+ signal after addition of Lys-Des-Arg^9-bradykinin (0.5 nM) or Des-Arg^9-bradykinin (100 nM). Antagonists lead to a suppression of the Ca^2+ inflow after addition of the agonist. % inhibition compared with the maximum achievable inhibition is stated.
The agonistic or antagonistic action of substances can be determined on the bradykinin receptor 1 (B1R) of the human and rat species with the following assay. In accordance with this assay, the Ca^2+ inflow through the channel is quantified with the aid of a Ca^2+-sensitive dyestuff (type Fluo-4, Molecular Probes Europe BV, Leiden, Holland) in a fluorescent imaging plate reader (FLIPR, Molecular Devices, Sunnyvale, USA).
Chinese hamster ovary cells (CHO K1 cells) transfected stably with the human B1R gene (hB1R cells) or the B1R gene of the rat (rB1R cells) are used. For functional studies, these cells are plated out on black 96-well plates with a clear base (BD Biosciences, Heidelberg, Germany or Greiner, Frickenhausen, Germany) in a density of 20,000-35,000 cells/well. The cells are left overnight at 37° C. and 5% CO2 in culture medium (hB1R cells: Nutrient Mixture Ham's F12, Gibco Invitrogen GmbH, Karlsruhe, Germany or DMEM, Sigma-Aldrich, Taufkirchen, Germany; rB1R cells: D-MEM/F12, Gibco Invitrogen GmbH, Karlsruhe, Germany) with 10 vol. % FBS (foetal bovine serum, Gibco Invitrogen GmbH, Karlsruhe, Germany or PAN Biotech GmbH, Aidenbach, Germany). On the following day, the cells are loaded for 60 min at 37° C. with 2.13 μM Fluo-4 (Molecular Probes Europe BV, Leiden Holland) in HBSS buffer (Hank's buffered saline solution, Gibco Invitrogen GmbH, Karlsruhe, Germany) with 2.5 mM probenecid (Sigma-Aldrich, Taufkirchen, Germany) and 10 mM HEPES (Sigma-Aldrich, Taufkirchen, Germany). The plates are then washed 2× with HBSS buffer, and HBSS buffer which additionally contains 0.1% BSA (bovine serum albumin; Sigma-Aldrich, Taufkirchen, Germany), 5.6 mM glucose and 0.05% gelatine (Merck KGaA, Darmstadt, Germany) is added. After a further incubation of 20 minutes at room temperature, the plates are inserted into the FLIPR for the Ca^2+ measurement. Alternatively, the plates are washed with buffer A (15 mM HEPES, 80 mM NaCl, 5 mM KCl, 1.2 mM CaCl2, 0.7 mM MgSO4, 2 g/l glucose, 2.5 mM probenecid), buffer A is added and the plates are loaded with 2.5 μM Fluo-4 and 0.025% Pluronic F127 (Sigma-Aldrich, Taufkirchen, Germany). Thereafter, the cells are washed 2× with buffer A and incubated for 30 minutes at room temperature with buffer A, which additionally contains 0.05% BSA and 0.05% gelatine, and thereafter inserted into the FLIPR for the Ca^2+ measurement. The Ca^2+-dependent fluorescence is measured here before and after addition of substances (λex=488 nm, λem=540 nm). Quantification is by measurement of the highest fluorescence intensity (FC, fluorescence counts) over time.
The FLIPR protocol consists of 2 additions of substance. Test substances (10 μM) are first pipetted on to the cells and the Ca^2+ inflow is compared with the control (hB1R: Lys-Des-Arg^9-bradykinin>=50 nM; rB1R: Des-Arg^9-bradykinin 10 μM). This gives the result in % activation based on the Ca^2+ signal after addition of Lys-Des-Arg^9-bradykinin (>=50 nM) or Des-Arg^9-bradykinin (10 μM). After incubation for 10-20 minutes, Lys-Des-Arg^9-bradykinin (hB1R) or Des-Arg^9-bradykinin (rB1R) in the concentration of the EC80 is applied and the inflow of Ca^2+ is likewise determined. Antagonists lead to a suppression of the Ca^2+ inflow. % inhibition compared with the maximum achievable inhibition is calculated.
For determination of the IC50 value, the substances are added in various concentrations. […]

inhibition at 10 µM | Compound
102% | CN(C1CCc2ccc(C(=O)N3CCC4(CC3)CCN(c3ccncc3)CC4)cc21)S(=O)(=O)c1ccccc1Cl (stereo not drawn) [IND_CC-325, 2-Chloro-N-methyl-N-[6-(9-pyridin-4-yl-3,9-diazaspiro[5.5]undecane-3-carbonyl)-2,3-dihydro-1H-inden-1-yl]-benzenesulfonic acid amide]
100% | Cc1cc(F)ccc1S(=O)(=O)N(C)C1CCc2ccc(C(=O)N3CCC4(CC3)CCN(c3ccncc3)CC4)cc21 (stereo not drawn) [IND_CC-326, 4-Fluoro-N,2-dimethyl-N-[6-(9-pyridin-4-yl-3,9-diazaspiro[5.5]undecane-3-carbonyl)-2,3-dihydro-1H-inden-1-yl]-benzenesulfonic acid amide]
101% | CN(C1CCc2ccc(C(=O)N3CCC4(CC3)CCN(c3ccncc3)CC4)cc21)S(=O)(=O)c1cccc(C(F)(F)F)c1 (stereo not drawn) [IND_CC-327, N-Methyl-N-[6-(9-pyridin-4-yl-3,9-diazaspiro[5.5]undecane-3-carbonyl)-2,3-dihydro-1H-inden-1-yl]-3-(trifluoromethyl)-benzenesulfonic acid amide]
98% | O=C(c1ccc2c(c1)C(NS(=O)(=O)c1cccc(C(F)(F)F)c1)CC2)N1CCC2(CC1)CCN(c1ccncc1)CC2 (stereo not drawn) [IND_CC-328, N-[6-(9-Pyridin-4-yl-3,9-diazaspiro[5.5]undecane-3-carbonyl)-2,3-dihydro-1H-inden-1-yl]-3-(trifluoromethyl)-benzenesulfonic acid amide]
97% | O=C(c1ccc2c(c1)C(NS(=O)(=O)c1cccc(C(F)(F)F)c1)CC2)N1CCC2(CC1)CCN(c1ccncc1)C2 (stereo not drawn) [IND_CC-329, N-[6-(2-Pyridin-4-yl-2,8-diazaspiro[4.5]decane-8-carbonyl)-2,3-dihydro-1H-inden-1-yl]-3-(trifluoromethyl)-benzenesulfonic acid amide]
67% | CC1(C)Cc2ccc(C(=O)N3CCC4(CC3)CCN(c3ccncc3)CC4)cc2C1NS(=O)(=O)c1ccc(C(F)(F)F)cc1Cl (stereo not drawn) [IND_CC-330, 2-Chloro-N-[2,2-dimethyl-6-(9-pyridin-4-yl-3,9-diazaspiro[5.5]undecane-3-carbonyl)-1,3-dihydro-inden-1-yl]-4-(trifluoromethyl)-benzenesulfonic acid amide]
94% | CC1(C)CC(NS(=O)(=O)c2ccc(C(F)(F)F)cc2Cl)c2cc(C(=O)N3CCC4(CC3)CCN(c3ccncc3)CC4)ccc21 (stereo not drawn) [IND_CC-331, 2-Chloro-N-[3,3-dimethyl-6-(3-pyridin-4-yl-3,9-diazaspiro[5.5]undecane-9-carbonyl)-1,2-dihydro-inden-1-yl]-4-(trifluoromethyl)-benzenesulfonic acid amide]
97% | CC1(C)CC(NS(=O)(=O)c2c(Cl)cccc2Cl)c2cc(C(=O)N3CCC4(CC3)CCN(c3ccncc3)CC4)ccc21 (stereo not drawn) [IND_CC-332, 2,6-Dichloro-N-[3,3-dimethyl-6-(3-pyridin-4-yl-3,9-diazaspiro[5.5]undecane-9-carbonyl)-1,2-dihydro-inden-1-yl]-benzenesulfonic acid amide]
92% | O=C(c1ccc2c(c1)C(NS(=O)(=O)c1c(Cl)cccc1Cl)CC2)N1CCC2(CCN(c3ccncc3)CC2)C1 (stereo not drawn) [IND_CC-333, 2,6-Dichloro-N-[6-(8-pyridin-4-yl-2,8-diazaspiro[4.5]decane-2-carbonyl)-2,3-dihydro-1H-inden-1-yl]-benzenesulfonic acid amide]
90% | CC1(C)Cc2ccc(C(=O)N3CCC4(CC3)CCN(c3ccncc3)CC4)cc2C1NS(=O)(=O)c1ccc(Cl)cc1Cl (stereo not drawn) [IND_CC-334, 2,4-Dichloro-N-[2,2-dimethyl-6-(9-pyridin-4-yl-3,9-diazaspiro[5.5]undecane-3-carbonyl)-1,3-dihydro-inden-1-yl]-benzenesulfonic acid amide]
102% | CC1(C)CC(NS(=O)(=O)c2ccc(Cl)cc2Cl)c2cc(C(=O)N3CCC4(CC3)CCN(c3ccncc3)CC4)ccc21 (stereo not drawn) [IND_CC-335, 2,4-Dichloro-N-[3,3-dimethyl-6-(3-pyridin-4-yl-3,9-diazaspiro[5.5]undecane-9-carbonyl)-1,2-dihydro-inden-1-yl]-benzenesulfonic acid amide]
103% | CC1(C)Cc2ccc(C(=O)N3CCC4(CC3)CCN(c3ccncc3)CC4)cc2C1NS(=O)(=O)c1ccccc1Cl (stereo not drawn) [IND_CC-336, 2-Chloro-N-[2,2-dimethyl-6-(9-pyridin-4-yl-3,9-diazaspiro[5.5]undecane-3-carbonyl)-1,3-dihydro-inden-1-yl]-benzenesulfonic acid amide]
104% | CC1(C)CC(NS(=O)(=O)c2ccccc2Cl)c2cc(C(=O)N3CCC4(CC3)CCN(c3ccncc3)CC4)ccc21 (stereo not drawn) [IND_CC-337, 2-Chloro-N-[3,3-dimethyl-6-(3-pyridin-4-yl-3,9-diazaspiro[5.5]undecane-9-carbonyl)-1,2-dihydro-inden-1-yl]-benzenesulfonic acid amide]
103% | Cc1cc(F)ccc1S(=O)(=O)NC1c2cc(C(=O)N3CCC4(CC3)CCN(c3ccncc3)CC4)ccc2CC1(C)C (stereo not drawn) [IND_CC-338, N-[2,2-Dimethyl-6-(9-pyridin-4-yl-3,9-diazaspiro[5.5]undecane-3-carbonyl)-1,3-dihydro-inden-1-yl]-4-fluoro-2-methyl-benzenesulfonic acid amide]
103% | Cc1cc(F)ccc1S(=O)(=O)NC1CC(C)(C)c2ccc(C(=O)N3CCC4(CC3)CCN(c3ccncc3)CC4)cc21 (stereo not drawn) [IND_CC-339, N-[3,3-Dimethyl-6-(3-pyridin-4-yl-3,9-diazaspiro[5.5]undecane-9-carbonyl)-1,2-dihydro-inden-1-yl]-4-fluoro-2-methyl-benzenesulfonic acid amide]
101% | CC1(C)CC(NS(=O)(=O)c2cccc(C(F)(F)F)c2)c2cc(C(=O)N3CCC4(CC3)CCN(c3ccncc3)CC4)ccc21 (stereo not drawn) [IND_CC-340, N-[3,3-Dimethyl-6-(3-pyridin-4-yl-3,9-diazaspiro[5.5]undecane-9-carbonyl)-1,2-dihydro-inden-1-yl]-3-(trifluoromethyl)-benzenesulfonic acid amide]
87% | CC1(C)Cc2ccc(C(=O)N3CCC4(CC3)CCN(c3ccncc3)CC4)cc2C1NS(=O)(=O)c1cccc(C(F)(F)F)c1 (stereo not drawn) [IND_CC-341, N-[2,2-Dimethyl-6-(9-pyridin-4-yl-3,9-diazaspiro[5.5]undecane-3-carbonyl)-1,3-dihydro-inden-1-yl]-3-(trifluoromethyl)-benzenesulfonic acid amide]
103% | O=C(c1ccc2c(c1)C(NS(=O)(=O)c1cccc(C(F)(F)F)c1)CC2)N1CCC2(CCN(c3ccncc3)CC2)C1 (stereo not drawn) [IND_CC-342, N-[6-(8-Pyridin-4-yl-2,8-diazaspiro[4.5]decane-2-carbonyl)-2,3-dihydro-1H-inden-1-yl]-3-(trifluoromethyl)-benzenesulfonic acid amide]

Reference: patent US8455475B2 (Gruenenthal GmbH, priority 2009, dated 2013)
